Data taken from ChEMBL document CHEMBL1201862, “PubChem BioAssay data set” (2004).
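Five compound concentrations were applied to cells in 96-well plates for 48 hours; endpoints were derived by simple linear interpolation of the resulting dose-response curve. GI50: concentration for 50% inhibition of growth.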 Active and inactive are the calls of the source. No stated cut-off is given here; in the data, active = GI50 up to about 1.1 µM and inactive = higher.

Assays:
Test in all cases: growth of human tumour cells (NCI), 48 h
A498 = system: A498
CCRF-CEM = system: CCRF-CEM
HCC 2998 = system: HCC 2998
HCT-116 = system: HCT-116
HOP-92 = system: HOP-92
K562 = system: K562
M14 = system: M14
MDA-N = system: MDA-N
NCI-H23 = system: NCI-H23
OVCAR-4 = system: OVCAR-4
OVCAR-8 = system: OVCAR-8
SF-295 = system: SF-295
SK-MEL-5 = system: SK-MEL-5
SNB-75 = system: SNB-75
SR = system: SR
SW-620 = system: SW-620
U-251 = system: U-251
UACC-257 = system: UACC-257
UACC-62 = system: UACC-62

Measured: GI50

C=CC/C(C(=O)OC)=C(/C(=O)OC)N(CCC)CCC
inactive: A498 > 100 µM | CCRF-CEM 36.1 µM | HCC 2998 > 100 µM | HCT-116 57.9 µM | HOP-92 64 µM | K562 35.8 µM | M14 > 100 µM | MDA-N > 100 µM | NCI-H23 > 100 µM | OVCAR-4 > 100 µM | OVCAR-8 > 100 µM | SF-295 > 100 µM | SK-MEL-5 > 100 µM | SNB-75 > 100 µM | SR 16.4 µM | SW-620 76.7 µM | U-251 59.4 µM | UACC-257 > 100 µM | UACC-62 > 100 µM

N=C(N)N/N=C/c1cnn(C(=N)N)c1
inactive: A498 > 100 µM | CCRF-CEM > 100 µM | HCC 2998 > 100 µM | HCT-116 > 100 µM | HOP-92 > 100 µM | K562 > 100 µM | M14 > 100 µM | MDA-N > 100 µM | NCI-H23 > 100 µM | OVCAR-4 > 100 µM | OVCAR-8 > 100 µM | SF-295 > 100 µM | SK-MEL-5 > 100 µM | SNB-75 95.3 µM | SR > 100 µM | SW-620 > 100 µM | U-251 91 µM | UACC-257 57.4 µM | UACC-62 > 100 µM

O=C(NCc1ccccc1)c1c(O)nc2ccccc2c1O
inactive: A498 > 100 µM | CCRF-CEM > 100 µM | HCC 2998 > 100 µM | HCT-116 > 100 µM | HOP-92 > 100 µM | K562 > 100 µM | MDA-N > 100 µM | NCI-H23 > 100 µM | OVCAR-4 > 100 µM | OVCAR-8 > 100 µM | SF-295 > 100 µM | SK-MEL-5 > 100 µM | SNB-75 > 100 µM | SR > 100 µM | SW-620 > 100 µM | U-251 > 100 µM | UACC-257 > 100 µM

COC(=O)c1ccc(C(=O)NC(Cc2ccc(Oc3cc(CC(NC(=O)c4ccccc4C(=O)OC)C(=O)OC)ccc3OC)cc2)C(=O)OC)cc1 (configuration not stated)
inactive: A498 72.6 µM | CCRF-CEM > 100 µM | HCC 2998 > 100 µM | HCT-116 > 100 µM | HOP-92 > 100 µM | K562 > 100 µM | M14 > 100 µM | MDA-N > 100 µM | NCI-H23 > 100 µM | OVCAR-4 > 100 µM | OVCAR-8 86.3 µM | SF-295 43.9 µM | SNB-75 42.6 µM | SR > 100 µM | SW-620 > 100 µM | UACC-257 > 100 µM

CSc1ccc(/C=C/c2ccnc3ccccc23)cc1
inactive: A498 15.5 µM | CCRF-CEM 17.9 µM | HCC 2998 13.9 µM | HCT-116 10.5 µM | HOP-92 16.4 µM | K562 5.47 µM | M14 9.04 µM | MDA-N 13.7 µM | NCI-H23 11.8 µM | OVCAR-8 15.5 µM | SF-295 14.4 µM | SK-MEL-5 6.08 µM | SNB-75 20.4 µM | SR 5.64 µM | SW-620 14 µM | U-251 12.8 µM | UACC-257 18.4 µM

Cn1c(=O)c(C(=O)Nc2nc(C34CC5CC(CC(C5)C3)C4)cs2)c(O)c2ccccc21
inactive: A498 58.9 µM | CCRF-CEM 41.2 µM | HCC 2998 > 100 µM | HCT-116 > 100 µM | HOP-92 18.2 µM | K562 40 µM | MDA-N > 100 µM | NCI-H23 > 100 µM | OVCAR-4 > 100 µM | OVCAR-8 > 100 µM | SF-295 > 100 µM | SK-MEL-5 > 100 µM | SNB-75 56.1 µM | SR 38.2 µM | SW-620 > 100 µM | U-251 57.5 µM | UACC-257 > 100 µM

O=S(=O)(c1ccccc1)c1cccc2c1NCCC2
inactive: A498 > 100 µM | CCRF-CEM 46.8 µM | HCC 2998 13.5 µM | HCT-116 42.5 µM | HOP-92 28.8 µM | K562 35.6 µM | M14 75.5 µM | MDA-N 47.2 µM | OVCAR-4 > 100 µM | OVCAR-8 58.6 µM | SF-295 31 µM | SK-MEL-5 23.2 µM | SNB-75 26.1 µM | SR 38.3 µM | SW-620 40.7 µM | UACC-257 23.6 µM | UACC-62 > 10 µM

Cc1ncc(COP(=O)(O)O)c(/C=C2\SC(=S)NC2=O)c1O
inactive: A498 > 100 µM | HCC 2998 > 100 µM | HCT-116 > 100 µM | HOP-92 > 74.5 µM | K562 > 85.7 µM | M14 > 100 µM | MDA-N > 100 µM | NCI-H23 > 100 µM | OVCAR-4 > 100 µM | OVCAR-8 > 100 µM | SF-295 > 22.3 µM | SK-MEL-5 > 100 µM | SNB-75 > 100 µM | SR > 100 µM | SW-620 > 100 µM | U-251 > 100 µM | UACC-257 > 100 µM | UACC-62 > 100 µM

O=C1OC2(CCCCC2)C(Oc2ccc(Cl)cc2)=C1F
inactive: A498 47.3 µM | CCRF-CEM 29.7 µM | HCC 2998 22.3 µM | HCT-116 35.7 µM | HOP-92 20.4 µM | K562 30.6 µM | M14 33 µM | MDA-N 37.2 µM | OVCAR-8 51.9 µM | SF-295 45.4 µM | SK-MEL-5 12.9 µM | SNB-75 89.1 µM | SR 33.5 µM | SW-620 23.6 µM | U-251 61.8 µM | UACC-257 24.3 µM | UACC-62 22.1 µM

COc1ccc2c(c1)CC[C@@H]1C2CC[C@]2(C)C(=C=CP(=O)(O)O)CCC12 (some centres not stated)
inactive: A498 > 100 µM | HCC 2998 > 100 µM | HCT-116 > 100 µM | HOP-92 > 100 µM | K562 > 100 µM | M14 > 100 µM | MDA-N > 100 µM | NCI-H23 > 100 µM | OVCAR-4 > 100 µM | OVCAR-8 > 100 µM | SF-295 > 100 µM | SK-MEL-5 > 100 µM | SNB-75 > 100 µM | SR 99.5 µM | SW-620 > 100 µM | U-251 > 100 µM | UACC-257 > 100 µM | UACC-62 > 100 µM

CCOC(=O)Cn1c(=O)c2nc(SC)sc2n(-c2ccccc2)c1=O
inactive: A498 22.4 µM | CCRF-CEM > 100 µM | HCC 2998 > 100 µM | HCT-116 > 100 µM | HOP-92 33.7 µM | K562 > 100 µM | M14 > 100 µM | MDA-N > 100 µM | NCI-H23 > 100 µM | OVCAR-8 > 100 µM | SK-MEL-5 > 100 µM | SNB-75 > 100 µM | SR > 100 µM | SW-620 > 100 µM | U-251 > 100 µM | UACC-257 > 100 µM | UACC-62 > 100 µM
